# Source: PubChem BioAssay (NCI)
#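 96-well plates; 48 h exposure; 5 concentrations. Endpoints by linear interpolation between flanking doses. Not reached: highest tested concentration assigned. TGI: concentration producing complete growth inhibition.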
# Key:
# Assay in all cases: NCI-60 cell line screen, 48 h
# [1] = system: SK-OV-3 ovarian
# [2] = system: PC-3 prostate
# [3] = system: HT29 colon
# [4] = system: HCT-116 colon
# [5] = system: DU-145 prostate
# [6] = system: SK-MEL-28 melanoma
# [7] = system: OVCAR-8 ovarian
# [8] = system: OVCAR-3 ovarian
# [9] = system: HS 578T breast
# [10] = system: UO-31 renal
# [11] = system: NCI-H522 lung
# [12] = system: SN12C renal
# [13] = system: SF-539 CNS
# [14] = system: OVCAR-4 ovarian
# [15] = system: KM12 colon
# [16] = system: SW-620 colon
# [17] = system: MDA-N
# [18] = system: HL-60(TB) leukemia
# [19] = system: MOLT-4 leukemia
# [20] = system: HCT-15 colon
# [21] = system: M14 melanoma
# [22] = system: NCI-H23 lung
# [23] = system: SK-MEL-2 melanoma
# [24] = system: NCI-H226 lung
# [25] = system: NCI/ADR-RES ovarian
# [26] = system: A498 renal
# [27] = system: SNB-75 CNS
# [28] = system: SK-MEL-5 melanoma
# [29] = system: K-562 leukemia
# [30] = system: SNB-19 CNS
# [31] = system: OVCAR-5 ovarian
# [32] = system: MALME-3M melanoma
# [33] = system: 786-0 renal
# [34] = system: NCI-H460 lung
# [35] = system: A549 NSCLC
# [36] = system: T-47D breast
# [37] = system: UACC-257 melanoma
# [38] = system: MCF7 breast
# [39] = system: HOP-92 NSCLC
# [40] = system: MDA-MB-435
# [41] = system: CCRF-CEM leukemia
# [42] = system: HOP-62 NSCLC
# [43] = system: SF-268 CNS
# [44] = system: HCC-2998 colon
# [45] = system: ACHN renal
# [46] = system: IGROV1 ovarian
# [47] = system: U251 CNS
# [48] = system: TK-10 renal
# [49] = system: LOX IMVI melanoma
# [50] = system: RPMI-8226 leukemia
# [51] = system: CAKI-1 renal
# [52] = system: SR leukemia
# [53] = system: MDA-MB-231 breast
# [54] = system: UACC-62 melanoma
# [55] = system: BT-549 breast
# [56] = system: EKVX NSCLC
# [57] = system: COLO 205 colon
# [58] = system: SF-295 CNS
# [59] = system: RXF 393 renal
structure (smiles),measurement,setting,value
O=C(O)CNC(=O)c1cccc2c(=O)c3ccccc3[nH]c12,TGI,[1],> 100 µM
same,TGI,[2],> 100 µM
same,TGI,[3],> 100 µM
same,TGI,[4],> 100 µM
same,TGI,[5],> 100 µM
same,TGI,[6],> 100 µM
same,TGI,[7],> 100 µM
same,TGI,[8],> 100 µM
same,TGI,[9],> 100 µM
same,TGI,[10],> 100 µM
same,TGI,[11],> 100 µM
same,TGI,[12],> 100 µM
same,TGI,[13],> 100 µM
same,TGI,[14],> 100 µM
same,TGI,[15],> 86.4 µM
same,TGI,[16],> 100 µM
same,TGI,[17],> 100 µM
same,TGI,[18],> 100 µM
same,TGI,[19],> 100 µM
same,TGI,[20],> 100 µM
same,TGI,[21],> 100 µM
same,TGI,[22],> 100 µM
same,TGI,[23],> 100 µM
same,TGI,[24],> 100 µM
same,TGI,[25],> 100 µM
same,TGI,[26],> 100 µM
same,TGI,[27],> 100 µM
same,TGI,[28],> 100 µM
same,TGI,[29],> 100 µM
same,TGI,[30],> 100 µM
same,TGI,[31],> 100 µM
same,TGI,[32],> 100 µM
same,TGI,[33],> 100 µM
same,TGI,[34],> 100 µM
same,TGI,[35],> 100 µM
same,TGI,[36],> 100 µM
same,TGI,[37],> 100 µM
same,TGI,[38],> 100 µM
same,TGI,[39],> 100 µM
same,TGI,[40],> 100 µM
same,TGI,[41],> 100 µM
same,TGI,[42],> 100 µM
same,TGI,[43],> 100 µM
same,TGI,[44],> 100 µM
same,TGI,[45],> 100 µM
same,TGI,[46],> 100 µM
same,TGI,[47],> 100 µM
same,TGI,[48],> 100 µM
same,TGI,[49],> 100 µM
same,TGI,[50],> 100 µM
same,TGI,[51],> 100 µM
same,TGI,[52],> 100 µM
same,TGI,[53],> 100 µM
same,TGI,[54],> 100 µM
same,TGI,[55],> 100 µM
same,TGI,[56],> 100 µM
same,TGI,[57],> 100 µM
same,TGI,[58],> 100 µM
same,TGI,[59],> 100 µM
